Test results from patent publication US20260216154A1, “POTASSIUM CHANNEL BLOCKERS OR DERIVATIVES THEREOF FOR PREVENTING, ALLEVIATING, AND/OR TREATING MORBIDITY AND MORTALITY INDUCED BY PATHOGENS OR OTHER INDUCERS OF IMMUNE […]/OR EXCESS IMMUNE ACTIVATI” (University of Rochester, priority 2023, published 2026).
Entries after “also recorded” stand apart in the source; their conditions may differ.

Key:
[1] = test system: non-neurotropic, non-lethal influenza virus (x31 strain); format: in vivo, mice; conditions: accelerating rod, three consecutive runs
[2] = test system: influenza virus (x31); format: in vivo, mice

Nc1ccncc1 [4-AP, 4-aminopyridine]
animals showing a decreased time to fall on the rotarod [1]: 27% | mice surviving until at least Day 14 (survivors/treated) ([2]; […], 4-AP 1.5 mg/kg, corticosteroid 1 mg/kg, N=7/group): 7/7 | influenza-induced weight loss (in words) ([2]; mouse, in vivo): lesser weight loss; also recorded: attenuated | survival of infected ATM KO mice (in words) ([2]; mouse, in vivo): complete rescue from death
